20 compounds from patent US8957093B2, “N-biphenylmethylindole modulators of PPARG” (The Scripps Research Institute, priority 2011, dated 2015) can be followed below.

One experiment concerns the target GST-PPARG-LBD (Homo sapiens (Human), UniProt P37231). Briefly: Lanthascreen PPARG competitive binding assay (Invitrogen, TR-FRET). The conditions noted are these: Lanthascreen competitive binding; NA = not active; inc = incomplete curve; read-out: IC50 (nM) Lantha. The procedure, abridged:
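Values are fold change in 520 nm/490 nm FRET ratio relative to a 2% DMSO no-ligand control, excitation 340 nm. Compound dilutions starting at 10 μM competed against 5 nM Fluormone Pan-PPAR Green for GST-PPARG-LBD bound by 5 nM Tb anti-GST antibody. Incubation 2 h in the dark in assay buffer C, triplicate wells.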

Experiment [1] addresses Gal-4-PPAR (human PPAR LBD fused to GAL4 DNA-binding domain) (Homo sapiens (Human), UniProt P37231). The experiment in a line: GAL4-PPARG LBD / UAS-luciferase transactivation assay in HEK 293T cells. The format is cell-based.
[2] abbreviates: GAL4 transactivation, HEK 293T cells; NA = not active; read-out: EC50 (nM) GAL4.
[3] abbreviates: HEK-293T, 18 h, read-out: % transactivation at 10 μM (GAL4).
Setting [4] is: HEK-293T, 18 h; read-out: % transactivation at 10 μM (GAL4).

Like-named read-outs stand apart in the source and are kept apart here.

Gal-4-PPAR (human PPAR LBD fused to GAL4 DNA-binding domain), sequence (P37231 238-503): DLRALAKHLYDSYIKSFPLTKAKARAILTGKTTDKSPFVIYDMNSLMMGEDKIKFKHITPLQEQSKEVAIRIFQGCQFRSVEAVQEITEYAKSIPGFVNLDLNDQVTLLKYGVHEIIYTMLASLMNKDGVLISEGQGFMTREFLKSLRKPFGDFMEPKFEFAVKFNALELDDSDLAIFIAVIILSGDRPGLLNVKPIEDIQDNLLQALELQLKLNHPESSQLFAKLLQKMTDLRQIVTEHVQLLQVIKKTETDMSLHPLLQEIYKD
GST-PPARG-LBD, sequence (P37231 238-503): as above

With `Cc1c(C)n(Cc2ccc(-c3ccccc3C(=O)O)cc2)c2ccc(C(=O)N[C@H](C)c3cccc(C(F)(F)F)c3Cl)cc12` [Example 231, (R)-4′-((5-((1-(2-chloro-3-(trifluoromethyl)phenyl)ethyl)carbamoyl)-2,3-dimethyl-1H-indol-1-yl)methyl)-[1,1′-biphenyl]-2-carboxylic acid], the IC50 on GST-PPARG-LBD turned out to be 2 nM. For the same compound, in experiment [1] (setting [2]), the EC50 is 131 nM. For the same compound, the activation at 10 µM in experiment [1] (setting [3]) came to 10%.
Consider `Cc1c(C)n(Cc2ccc(-c3ccccc3C(=O)O)cc2)c2ccc(C(=O)N[C@@H](C)c3cccc(Cl)c3F)cc12` [Example 232, (S)-4′-((5-((1-(3-chloro-2-fluorophenyl)ethyl)carbamoyl)-2,3-dimethyl-1H-indol-1-yl)methyl)-[1,1′-biphenyl]-2-carboxylic acid], for which the half-inhibitory concentration (IC50) at GST-PPARG-LBD was determined as 18 nM. In experiment [1] (setting [2]), the EC50 was found to be 297 nM. In experiment [1] (setting [4]), the activation at 10 µM turned out to be 30%.
The like results for `Cc1c(C)n(Cc2ccc(-c3ccccc3C(=O)O)cc2)c2ccc(C(=O)N[C@@H](C)c3ccc(F)c(F)c3)cc12` [Example 233, (S)-4′-((5-((1-(3,4-difluorophenyl)ethyl)carbamoyl)-2,3-dimethyl-1H-indol-1-yl)methyl)-[1,1′-biphenyl]-2-carboxylic acid] were, in that order, 9 nM, 166 nM and 40%.
The like results for `Cc1c(C)n(Cc2ccc(-c3ccccc3C(=O)O)cc2)c2ccc(C(=O)N[C@H](C)c3ccc(C(F)(F)F)c(F)c3)cc12` [Example 234, (R)-4′-((5-((1-(3-fluoro-4-(trifluoromethyl)phenyl)ethyl)carbamoyl)-2,3-dimethyl-1H-indol-1-yl)methyl)-[1,1′-biphenyl]-2-carboxylic acid] were, in that order, < 1 nM, 40 nM and 50%.
Regarding `Cc1c(C)n(Cc2ccc(-c3ccccc3C(=O)O)cc2)c2ccc(C(=O)N[C@H](C)c3c(F)ccc(F)c3F)cc12` [Example 235, (R)-4′-((2,3-dimethyl-5-((1-(2,3,6-trifluorophenyl)ethyl)carbamoyl)-1H-indol-1-yl)methyl)-[1,1′-biphenyl]-2-carboxylic acid], the IC50 on GST-PPARG-LBD is 3 nM. Also, the EC50 in experiment [1] (setting [2]) worked out at 37 nM. For the same compound, the activation at 10 µM in experiment [1] (setting [3]) turned out to be 30%.
As for `Cc1c(C)n(Cc2ccc(-c3ccccc3C(=O)O)cc2)c2ccc(C(=O)N[C@@H](C)c3c(F)ccc(F)c3F)cc12` [Example 236, (S)-4′-((2,3-dimethyl-5-((1-(2,3,6-trifluorophenyl)ethyl)carbamoyl)-1H-indol-1-yl)methyl)-[1,1′-biphenyl]-2-carboxylic acid], at GST-PPARG-LBD, the IC50 was 17 nM. In experiment [1] (setting [2]), the EC50 turned out to be 293 nM. Further, the activation at 10 µM in experiment [1] (setting [3]) is 20%.
As for `Cc1c(C)n(Cc2ccc(-c3ccccc3C(=O)O)cc2)c2ccc(C(=O)N[C@@H](C)[C@@H]3CCCN3C(=O)OCc3ccccc3)cc12` [Example 237, 4′-((5-(((S)-1-((S)-1-((benzyloxy)carbonyl)pyrrolidin-2-yl)ethyl)carbamoyl)-2,3-dimethyl-1H-indol-1-yl)methyl)-[1,1′-biphenyl]-2-carboxylic acid], the IC50 on GST-PPARG-LBD was determined as 118 nM. The EC50 in experiment [1] (setting [2]) is 417 nM. The activation at 10 µM in experiment [1] (setting [4]) was found to be 30%.
For the compound `Cc1c(C)n(Cc2ccc(-c3ccccc3C(=O)O)cc2)c2ccc(C(=O)N[C@@H](C)[C@H]3CCCN3C(=O)OCc3ccccc3)cc12` [Example 238, 4′-((5-(((S)-1-((R)-1-((benzyloxy)carbonyl)pyrrolidin-2-yl)ethyl)carbamoyl)-2,3-dimethyl-1H-indol-1-yl)methyl)-[1,1′-biphenyl]-2-carboxylic acid], at GST-PPARG-LBD, the IC50 came out at 20 nM. In addition, the EC50 in experiment [1] (setting [2]) was found to be 193 nM. Moreover, the activation at 10 µM in experiment [1] (setting [4]) stood at 55%.
On to `Cc1c(C)n(Cc2ccc(-c3ccccc3C(=O)O)cc2)c2ccc(C(=O)N[C@H](C)c3cc(F)ccc3C(F)(F)F)cc12` [Example 239, (R)-4′-((5-((1-(5-fluoro-2-(trifluoromethyl)phenyl)ethyl)carbamoyl)-2,3-dimethyl-1H-indol-1-yl)methyl)-[1,1′-biphenyl]-2-carboxylic acid], for which, on GST-PPARG-LBD, the IC50 worked out at 17 nM. Moreover, in experiment [1] (setting [2]), the half-maximal effective concentration (EC50) worked out at 169 nM. Besides, in experiment [1] (setting [3]), the activation at 10 µM stood at 15%.
Turning to `Cc1c(C)n(Cc2ccc(-c3ccccc3C(=O)O)cc2)c2ccc(C(=O)N[C@@H](C)[C@@H]3CCN(C(=O)OCc4ccccc4)C3)cc12` [Example 240, 4′-((5-(((S)-1-((R)-1-((benzyloxy)carbonyl)pyrrolidin-3-yl)ethyl)carbamoyl)-2,3-dimethyl-1H-indol-1-yl)methyl)-[1,1′-biphenyl]-2-carboxylic acid], on GST-PPARG-LBD, the IC50 was determined as 58 nM. The half-maximal effective concentration (EC50) in experiment [1] (setting [2]) was found to be 1300 nM. Further, the activation at 10 µM in experiment [1] (setting [4]) turned out to be 25%.
As to `Cc1c(C)n(Cc2ccc(-c3ccccc3C(=O)O)cc2)c2ccc(C(=O)N[C@@H](C)c3cc(F)ccc3C(F)(F)F)cc12` [Example 241, (S)-4′-((5-((1-(5-fluoro-2-(trifluoromethyl)phenyl)ethyl)carbamoyl)-2,3-dimethyl-1H-indol-1-yl)methyl)-[1,1′-biphenyl]-2-carboxylic acid], the IC50 on GST-PPARG-LBD is 57 nM. Moreover, the EC50 in experiment [1] (setting [2]) was found to be 453 nM. Further, the activation at 10 µM in experiment [1] (setting [3]) stood at 20%.
With `Cc1c(C)n(Cc2ccc(-c3ccccc3-c3nn[nH]n3)cc2)c2ccc(C(=O)N[C@@H](C)c3cccc(C(C)C)c3)cc12` [Example 243, (S)-1-((2′-(2H-tetrazol-5-yl)-[1,1′-biphenyl]-4-yl)methyl)-N-(1-(3-isopropylphenyl)ethyl)-2,3-dimethyl-1H-indole-5-carboxamide], the IC50 at GST-PPARG-LBD amounted to 22 nM. In experiment [1], this compound showed an EC50 of 1600 nM. Moreover, the activation at 10 µM in experiment [1] (setting [4]) turned out to be 10%.
In the case of `Cc1c(C)n(Cc2ccc(-c3ccccc3-c3noc(=O)[nH]3)cc2)c2ccc(C(=O)N[C@@H](C)c3cccc(C(C)C)c3)cc12` [Example 244, (S)—N-(1-(3-isopropylphenyl)ethyl)-2,3-dimethyl-1-((2′-(5-oxo-4,5-dihydro-1,2,4-oxadiazol-3-yl)-[1,1′-biphenyl]-4-yl)methyl)-1H-indole-5-carboxamide], at GST-PPARG-LBD, the IC50 came out at 40 nM. A half-maximal response in experiment [1] (EC50) required 921 nM. The activation at 10 µM in experiment [1] (setting [4]) came to 8%.
As for `Cc1c(C)n(Cc2ccc(-c3ccccc3-c3n[nH]c(=O)o3)cc2)c2ccc(C(=O)N[C@@H](C)c3cccc(C(C)C)c3)cc12` [Example 245, (S)—N-(1-(3-isopropylphenyl)ethyl)-2,3-dimethyl-1-((2′-(5-oxo-4,5-dihydro-1,3,4-oxadiazol-2-yl)-[1,1′-biphenyl]-4-yl)methyl)-1H-indole-5-carboxamide], the IC50 on GST-PPARG-LBD is 7 nM. In experiment [1], this compound came in with an EC50 of 454 nM. The activation at 10 µM in experiment [1] (setting [4]) is 10%.
Regarding `CCCc1ccc([C@H](C)NC(=O)c2ccc3c(c2)c(C)c(C)n3Cc2ccc(-c3ccccc3C(=O)O)cc2)cc1` [Example 251, (S)-4′-((2,3-dimethyl-5-(1-(4-propylphenyl)ethylcarbamoyl)-1H-indol-1-yl)methyl)biphenyl-2-carboxylic acid], on GST-PPARG-LBD, the IC50 amounted to 40 nM. Further, the EC50 in experiment [1] (setting [2]) amounted to 1610 nM. In addition, the activation at 10 µM in experiment [1] (setting [4]) came out at 30%.
For the compound `Cc1c(C)n(Cc2ccc(-c3ccccc3C(=O)O)cc2)c2ccc(C(=O)NC(C)c3cncc(C4CC4)c3)cc12` (stereo not drawn) [Example 259, 4′-((5-(1-(5-cyclopropylpyridin-3-yl)ethylcarbamoyl)-2,3-dimethyl-1H-indol-1-yl)methyl)biphenyl-2-carboxylic acid], the IC50 at GST-PPARG-LBD is 19 nM. Besides, in experiment [1] (setting [2]), the EC50 was found to be 1480 nM. In addition, the activation at 10 µM in experiment [1] (setting [4]) was 15%.
On to `Cc1c(C)n(Cc2ccc(-c3ccccc3C(=O)O)cc2)c2ccc(C(=O)N[C@@H](C)c3ccc(Br)cn3)cc12` [Example 260, (S)-4′-((5-((1-(5-bromopyridin-2-yl)ethyl)carbamoyl)-2,3-dimethyl-1H-indol-1-yl)methyl)-[1,1′-biphenyl]-2-carboxylic acid], for which the IC50 on GST-PPARG-LBD amounted to 2 nM. In addition, in experiment [1] (setting [2]), the EC50 is 42 nM. In addition, the activation at 10 µM in experiment [1] (setting [4]) came to 25%.
The like results for `Cc1c(C)n(Cc2ccc(-c3ccccc3C(=O)O)cc2)c2ccc(C(=O)N[C@@H](C)c3ccc(C4CC4)cn3)cc12` [Example 261, (S)-4′-((5-((1-(5-cyclopropylpyridin-2-yl)ethyl)carbamoyl)-2,3-dimethyl-1H-indol-1-yl)methyl)-[1,1′-biphenyl]-2-carboxylic acid] were, in that order, 4 nM, 50 nM and 30%.
In the case of `Cc1c(C)n(Cc2ccc(-c3ccccc3C(=O)O)cc2)c2ccc(C(=O)N[C@@H](C)c3ccc(Cl)nc3)cc12` [Example 262, (S)-4′-((5-((1-(6-chloropyridin-3-yl)ethyl)carbamoyl)-2,3-dimethyl-1H-indol-1-yl)methyl)-[1,1′-biphenyl]-2-carboxylic acid], the IC50 at GST-PPARG-LBD came out at 144 nM. The EC50 in experiment [1] (setting [2]) was 4000 nM. Also, the activation at 10 µM in experiment [1] (setting [4]) stood at 35%.
For the compound `Cc1c(C)n(Cc2ccc(-c3ccccc3C(=O)O)cc2)c2ccc(C(=O)N[C@@H](C)c3ccc(C4CC4)nc3)cc12` [Example 263, (S)-4′-((5-((1-(6-cyclopropylpyridin-3-yl)ethyl)carbamoyl)-2,3-dimethyl-1H-indol-1-yl)methyl)-[1,1′-biphenyl]-2-carboxylic acid], the concentration for half-maximal inhibition (IC50) on GST-PPARG-LBD was 59 nM. Besides, in experiment [1] (setting [2]), the EC50 was 3760 nM. In experiment [1] (setting [4]), the activation at 10 µM was 20%.
